PubChem BioAssay (NCI)
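These data come from cells grown in 96-well plates and exposed to compound for 48 hours at five concentrations. Definition used: TGI = concentration required for complete inhibition of growth.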

Experiments:
Test in all cases: NCI tumour cell line growth inhibition, 48 h
[1] = test system: HCT-15 colon
[2] = test system: 786-0 renal
[3] = test system: MCF7 breast
[4] = test system: HL-60(TB) leukemia
[5] = test system: MDA-MB-435
[6] = test system: A549 NSCLC
[7] = test system: SK-MEL-5 melanoma
[8] = test system: SK-MEL-28 melanoma
[9] = test system: SW-620 colon
[10] = test system: UACC-257 melanoma
[11] = test system: UO-31 renal
[12] = test system: CCRF-CEM leukemia
[13] = test system: A498 renal
[14] = test system: OVCAR-8 ovarian
[15] = test system: BT-549 breast
[16] = test system: SR leukemia
[17] = test system: LOX IMVI melanoma
[18] = test system: OVCAR-3 ovarian
[19] = test system: K-562 leukemia
[20] = test system: M14 melanoma

SMILES	TGI [1]	TGI [2]	TGI [3]	TGI [4]	TGI [5]	TGI [6]	TGI [7]	TGI [8]	TGI [9]	TGI [10]	TGI [11]	TGI [12]	TGI [13]	TGI [14]	TGI [15]	TGI [16]	TGI [17]	TGI [18]	TGI [19]	TGI [20]
O=c1c2cc(-c3ccccc3)sc2nc2n1N=C(c1ccc(Cl)cc1)CS2	> 100 µM	> 100 µM	> 100 µM	> 100 µM	> 100 µM	> 100 µM	> 100 µM	> 100 µM	> 100 µM	> 100 µM	> 100 µM	> 100 µM	> 100 µM	> 100 µM	> 100 µM	> 100 µM	> 100 µM	> 100 µM	> 100 µM	–
CCCCCCc1ccc(C(=O)NO)cc1	> 100 µM	46.6 µM	> 100 µM	53.8 µM	> 100 µM	> 100 µM	> 100 µM	> 100 µM	> 100 µM	> 100 µM	48.7 µM	52.8 µM	81.7 µM	35.6 µM	> 100 µM	39.2 µM	76.9 µM	> 100 µM	> 100 µM	> 100 µM
Clc1nssc1=Nc1nonc1-c1ccccc1	> 100 µM	> 100 µM	> 100 µM	34.9 µM	> 100 µM	> 100 µM	37 µM	> 100 µM	> 100 µM	> 100 µM	36.3 µM	90.8 µM	> 100 µM	> 100 µM	89.8 µM	68.6 µM	> 100 µM	> 100 µM	70.1 µM	37.2 µM
CC1(C)CCc2c(c(N=Nc3ccc(S(N)(=O)=O)cc3)c3ccccc3c2O)O1	43.9 µM	23.2 µM	33.1 µM	49.9 µM	22.5 µM	30.2 µM	8.1 µM	72.9 µM	> 100 µM	21.3 µM	40.4 µM	24.3 µM	7.28 µM	28.7 µM	29.1 µM	58.3 µM	21.3 µM	32.1 µM	> 100 µM	38.2 µM
C=CCN1C(=O)/C(=C\c2cc(C(C)(C)C)c(O)c(C(C)(C)C)c2)NC1=S	> 100 µM	55.7 µM	90.5 µM	25.1 µM	70.8 µM	> 100 µM	30.1 µM	> 100 µM	> 100 µM	43.4 µM	> 100 µM	20.4 µM	90.8 µM	> 100 µM	> 100 µM	> 100 µM	31.6 µM	39.6 µM	> 100 µM	75.4 µM
O=C1c2ccccc2CN1c1ccc(OCCN2CCCCC2)cc1	> 10 µM	> 10 µM	> 10 µM	> 10 µM	> 10 µM	> 10 µM	> 10 µM	> 10 µM	> 10 µM	> 10 µM	> 10 µM	> 10 µM	> 10 µM	> 10 µM	> 10 µM	> 10 µM	> 10 µM	> 10 µM	> 10 µM	> 10 µM
CCCCCCCCCCCCCCCCCCN(C)C(COC)COP(=O)([O-])OCC[N+](C)(C)C (stereo not given)	–	3.56 µM	23.7 µM	4.34 µM	33.9 µM	21.1 µM	29.9 µM	36.7 µM	21.2 µM	29.5 µM	31.4 µM	7.41 µM	34.1 µM	26.3 µM	26 µM	22.9 µM	18.8 µM	22.4 µM	31.3 µM	13.7 µM
CSC1=Nc2ccccc2-c2nc3ccccc3cc2C1	> 100 µM	> 100 µM	> 100 µM	> 100 µM	> 100 µM	> 100 µM	> 100 µM	> 100 µM	–	> 100 µM	> 100 µM	> 100 µM	> 100 µM	> 100 µM	> 100 µM	> 100 µM	> 100 µM	> 100 µM	> 100 µM	> 100 µM
CC[C@@H]1C(=O)OC[C@@H]1Cc1cncn1C	> 100 µM	> 100 µM	> 100 µM	> 100 µM	> 100 µM	> 100 µM	> 100 µM	> 100 µM	> 100 µM	> 100 µM	> 100 µM	> 100 µM	> 100 µM	> 100 µM	> 100 µM	> 100 µM	> 100 µM	> 100 µM	> 100 µM	> 100 µM
N#Cc1c(=O)c2ccccc2n2c1[nH]c1ccccc12	> 100 µM	> 100 µM	> 100 µM	> 100 µM	> 100 µM	> 100 µM	–	> 100 µM	> 100 µM	> 100 µM	> 100 µM	79.6 µM	> 100 µM	> 100 µM	> 100 µM	43.8 µM	> 100 µM	> 100 µM	> 100 µM	> 100 µM
N#CC1C(=O)SC2c3ccccc3C(=O)c3ccccc3C12 (stereo not given)	> 10 µM	> 10 µM	> 10 µM	> 10 µM	> 10 µM	> 10 µM	> 10 µM	> 10 µM	> 10 µM	> 10 µM	> 10 µM	> 10 µM	> 10 µM	> 10 µM	> 10 µM	> 10 µM	> 10 µM	> 10 µM	> 10 µM	> 10 µM
C=CC1CCC[N+]1(CC(=O)OCC)Cc1ccccc1 (stereo not given)	> 100 µM	> 100 µM	> 100 µM	> 100 µM	> 100 µM	> 100 µM	> 100 µM	> 100 µM	> 100 µM	> 100 µM	> 100 µM	> 100 µM	> 100 µM	> 100 µM	> 100 µM	> 100 µM	–	> 100 µM	> 100 µM	> 100 µM
